Experimental findings from US10174037B2, “Dihydropyrazolopyrimidinone compounds as PDE2 inhibitors” (Merck Sharp & Dohme Corp., priority 2015, dated 2019) are described below.

SMILES strings stand for the structures.

human PDE2A1, sequence (O00408 other isoform, or with tags, fused parts or gaps): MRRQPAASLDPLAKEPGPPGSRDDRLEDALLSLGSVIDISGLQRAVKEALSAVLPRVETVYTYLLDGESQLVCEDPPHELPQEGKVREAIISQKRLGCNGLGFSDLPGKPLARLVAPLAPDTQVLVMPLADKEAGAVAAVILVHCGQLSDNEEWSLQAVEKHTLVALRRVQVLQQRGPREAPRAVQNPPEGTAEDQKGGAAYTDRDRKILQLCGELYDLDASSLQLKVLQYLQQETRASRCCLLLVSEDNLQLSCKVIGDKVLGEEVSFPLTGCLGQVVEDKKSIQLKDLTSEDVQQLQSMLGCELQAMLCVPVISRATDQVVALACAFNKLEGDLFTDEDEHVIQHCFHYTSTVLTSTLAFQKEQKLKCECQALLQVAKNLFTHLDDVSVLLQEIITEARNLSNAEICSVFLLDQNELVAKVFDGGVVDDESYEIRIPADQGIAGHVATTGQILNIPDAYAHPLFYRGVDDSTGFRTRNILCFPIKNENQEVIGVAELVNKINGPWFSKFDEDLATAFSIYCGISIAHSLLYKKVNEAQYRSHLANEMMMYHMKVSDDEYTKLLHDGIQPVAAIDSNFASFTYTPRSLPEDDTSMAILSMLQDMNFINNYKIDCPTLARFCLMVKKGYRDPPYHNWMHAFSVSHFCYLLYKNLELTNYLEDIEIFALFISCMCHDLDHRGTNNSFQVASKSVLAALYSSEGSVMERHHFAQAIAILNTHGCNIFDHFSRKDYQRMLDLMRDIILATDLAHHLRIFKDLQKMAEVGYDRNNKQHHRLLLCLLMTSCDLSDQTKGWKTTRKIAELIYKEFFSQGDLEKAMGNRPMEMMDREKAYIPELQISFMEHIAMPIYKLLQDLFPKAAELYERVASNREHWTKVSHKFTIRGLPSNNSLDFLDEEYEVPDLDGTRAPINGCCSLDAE

The test deals with human PDE2A1 (Homo sapiens (Human), UniProt O00408). Briefly: PDE selectivity IMAP FP assay, human PDE2A1. In kind it is biochemical. The following applies: Human PDE2; Lab B; read-out: Human PDE2 Ki (nM) Lab B. Here is the method:
Selectivity for PDE2, as compared to other PDE families, was assessed using the IMAP® technology. Human PDE10A2 enzyme was prepared from cytosolic fractions of transiently transfected HEK cells.
A Labcyte POD 810 (Labcyte, Sunnyvale, Calif.) was used to dispense 200 nL from each well of the titration plate to make eleven copies of the assay plate for each titration, one copy for each PDE enzyme. A solution of each enzyme (dilution from aliquots, sufficient to produce 20% substrate conversion) and a separate solution of FAM-labeled cAMP or FAM-labeled cGMP from Molecular Devices (Sunnyvale, Calif., product # R7506 or cGMP#R7508), at a final concentration of 50 nM were made in the assay buffer (10 mM Tris HCl, pH 7.2, 10 mM MgCl2, 0.05% NaN3 0.01% Tween-20, and 1 mM DTT). Note that the substrate for PDE2 is 50 nM FAM cAMP containing 1000 nM of cGMP. The enzyme and the substrate were then added to the assay plates in two consecutive additions of 10 μL and then shaken to mix. The reaction was allowed to proceed at room temperature for 60 minutes. A binding solution was then made from the kit components, comprised of 80% Solution A, 20% Solution B and binding reagent at a volume of 1/600 the total binding solution. The enzymatic reaction was stopped by addition of 60 μL of the binding solution to each well of the assay plate. […] The plates were incubated at room temperature for one hour, then the parallel and perpendicular fluorescence was measured using a Tecan Genios Pro plate reader (Tecan, Switzerland). […] The intrinsic PDE2 inhibitory activity of a compound which may be used in accordance with the present invention may be determined by these assays. […]
The PDE2 Ki is a measure of the ability of the test compound to inhibit the action of the PDE2 enzyme.
With `CC(c1ccc(C2CC2)cc1)n1nc(C(F)F)c2c(=O)[nH]c(O)nc21` (single isomer, unassigned) [Example 275, (R)- or (S)-1-(1-(4-Cyclopropylphenyl)ethyl)-3-(difluoromethyl)-6-hydroxy-1H-pyrazolo[3,4-d]pyrimidin-4(5H)-one], the Ki was found to be 416 nM. Turning to `CC(c1ccc(C2CC2)cc1)n1nc(C(F)F)c2c(=O)[nH]c(O)nc21` (single isomer, unassigned) [Example 276, (S)- or (R)-1-(1-(4-Cyclopropylphenyl)ethyl)-3-(difluoromethyl)-6-hydroxy-1H-pyrazolo[3,4-d]pyrimidin-4(5H)-one], the Ki stood at 3.6 nM. As for `CC(c1ccc(C(F)(F)F)cc1)n1nc(CC(F)F)c2c(=O)[nH]c(O)nc21` (single isomer, unassigned) [Example 291], the Ki worked out at 2.5 nM. The value for `CC(c1ccc(C(F)(F)F)cc1)n1nc(CC(F)F)c2c(=O)[nH]c(O)nc21` (single isomer, unassigned) [Example 292] was 137 nM; that for `CC(c1ccc(C(F)(F)F)cc1F)n1nc(C(F)(F)F)c2c(=O)[nH]c(O)nc21` (single isomer, unassigned) [Example 305] was 1.9 nM. For `CC(c1ccc(C(F)(F)F)cc1F)n1nc(C(F)(F)F)c2c(=O)[nH]c(O)nc21` (single isomer, unassigned) [Example 306] the value was 330 nM.

`CC(c1ccc(OC(F)(F)F)cc1F)n1nc(C(F)(F)F)c2c(=O)[nH]c(O)nc21` (single isomer, unassigned) [Example 307, (R)- or (S)-1-{1-[2-Fluoro-4-(trifluoro-methoxy)phenyl]ethyl}-6-hydroxy-3-(trifluoromethyl)-1,5-dihydro-4H-pyrazolo-[3,4-d]pyrimidin-4-one]: the Ki was 10 nM.

Consider `CC(c1ccc(OC(F)(F)F)cc1F)n1nc(C(F)(F)F)c2c(=O)[nH]c(O)nc21` (single isomer, unassigned) [Example 308, (S)- or (R)-1-{1-[2-Fluoro-4-(trifluoro-methoxy)phenyl]ethyl}-6-hydroxy-3-(trifluoromethyl)-1,5-dihydro-4H-pyrazolo[3,4-d]pyrimidin-4-one], for which the Ki amounted to 213 nM.

Regarding `CC(c1ccc(OC(F)(F)F)c(F)c1)n1nc(C(F)(F)F)c2c(=O)[nH]c(O)nc21` (single isomer, unassigned) [Example 309, (R)- or (S)-1-{1-[3-Fluoro-4-(trifluoromethoxy)phenyl]ethyl}-6-hydroxy-3-(trifluoromethyl)-1,5-dihydro-4H-pyrazolo[3,4-d]pyrimidin-4-one], the Ki was found to be 2.7 nM.

As to `CC(c1ccc(OC(F)(F)F)c(F)c1)n1nc(C(F)(F)F)c2c(=O)[nH]c(O)nc21` (single isomer, unassigned) [Example 310, (S)- or (R)-1-{1-[3-Fluoro-4-(trifluoromethoxy)phenyl]ethyl}-6-hydroxy-3-(trifluoromethyl)-1,5-dihydro-4H-pyrazolo[3,4-d]pyrimidin-4-one], the Ki is 36 nM. For `CC(c1ccc(S(F)(F)(F)(F)F)cc1)n1nc(C(F)(F)F)c2c(=O)[nH]c(O)nc21` (single isomer, unassigned) [Example 311, (R)- or (S)-6-Hydroxy-1-{1-[4-(pentafluoro-lambda~6-sulfanyl)phenyl]ethyl}-3-(trifluoromethyl)-1,5-dihydro-4H-pyrazolo[3,4-d]pyrimidin-4-one], the Ki worked out at 4.9 nM. For `CC(c1ccc(S(F)(F)(F)(F)F)cc1)n1nc(C(F)(F)F)c2c(=O)[nH]c(O)nc21` (single isomer, unassigned) [Example 312, (S)- or (R)-6-Hydroxy-1-{1-[4-(pentafluoro-lambda~6-sulfanyl)phenyl]ethyl}-3-(trifluoromethyl)-1,5-dihydro-4H-pyrazolo[3,4-d]pyrimidin-4-one] the value was 265 nM; for `CC(c1ccc(C(F)(F)F)c(F)c1)n1nc(C(F)(F)F)c2c(=O)[nH]c(O)nc21` (single isomer, unassigned) [Example 313, (R)- or (S)-1-{1-[3-Fluoro-4-(trifluoromethyl)phenyl]ethyl}-6-hydroxy-3-(trifluoromethyl)-1,5-dihydro-4H-pyrazolo[3,4-d]pyrimidin-4-one], 2.2 nM; for `CC(c1ccc(C(F)(F)F)c(F)c1)n1nc(C(F)(F)F)c2c(=O)[nH]c(O)nc21` (single isomer, unassigned) [Example 314, (S)- or (R)-1-{1-[3-Fluoro-4-(trifluoromethyl)phenyl]ethyl}-6-hydroxy-3-(trifluoromethyl)-1,5-dihydro-4H-pyrazolo[3,4-d]pyrimidin-4-one], 106 nM. The value for `CC(c1ccc(OC(F)F)cc1)n1nc(C(F)(F)F)c2c(=O)[nH]c(O)nc21` (single isomer, unassigned) [Example 315, (R)- or (S)-1-{1-[4-(Difluoromethoxy)phenyl]ethyl}-6-hydroxy-3-(trifluoromethyl)-1,5-dihydro-4H-pyrazolo[3,4-d]pyrimidin-4-one] was 629 nM. Consider `CC(c1ccc(OC(F)F)cc1)n1nc(C(F)(F)F)c2c(=O)[nH]c(O)nc21` (single isomer, unassigned) [Example 316, (S)- or (R)-1-{1-[4-(Difluoromethoxy)phenyl]ethyl}-6-hydroxy-3-(trifluoromethyl)-1,5-dihydro-4H-pyrazolo[3,4-d]pyrimidin-4-one], for which the Ki was 6.1 nM. The value for `CC(c1ccc(C(C)(F)F)cc1)n1nc(C(F)(F)F)c2c(=O)[nH]c(O)nc21` (single isomer, unassigned) [Example 317, (R)- or (S)-1-(1-(4-(1,1-Difluoroethyl)phenyl)ethyl)-6-hydroxy-3-(trifluoromethyl)-1H-pyrazolo[3,4-d]pyrimidin-4(5H)-one] was 326 nM.

On to `CC(c1ccc(C(C)(F)F)cc1)n1nc(C(F)(F)F)c2c(=O)[nH]c(O)nc21` (single isomer, unassigned) [Example 318, (S)- or (R)-1-(1-(4-(1,1-Difluoroethyl)phenyl)ethyl)-6-hydroxy-3-(trifluoromethyl)-1H-pyrazolo[3,4-d]pyrimidin-4(5H)-one], for which the Ki stood at 3 nM. As for `CC(c1ccc(CC(F)F)cc1)n1nc(C(F)(F)F)c2c(=O)[nH]c(O)nc21` (single isomer, unassigned) [Example 319, (R)- or (S)-1-(1-(4-(2,2-Difluoroethyl)phenyl)ethyl)-6-hydroxy-3-(trifluoromethyl)-1H-pyrazolo[3,4-d]pyrimidin-4(5H)-one], the Ki is 590 nM. For `CC(c1ccc(CC(F)F)cc1)n1nc(C(F)(F)F)c2c(=O)[nH]c(O)nc21` (single isomer, unassigned) [Example 320, (S)- or (R)-1-(1-(4-(2,2-Difluoroethyl)phenyl)ethyl)-6-hydroxy-3-(trifluoromethyl)-1H-pyrazolo[3,4-d]pyrimidin-4(5H)-one] the value was 13 nM. Regarding `CC(c1ccc(OC(F)(F)F)c(Cl)c1)n1nc(C(F)(F)F)c2c(=O)[nH]c(O)nc21` (single isomer, unassigned) [Example 321, (R)- or (S)-1-(1-(3-Chloro-4-(trifluoromethoxy)phenyl)ethyl)-6-hydroxy-3-(trifluoromethyl)-1H-pyrazolo[3,4-d]pyrimidin-4(5H)-one], the Ki was determined as 145 nM.
